The record followed here is patent US5859030A, “Substituted arylalkylthioalkylthiopyridines for use in the control of helicobacter bacteria” (BYK Gulden Lomberg Chemische Fabrik GmbH, priority 1994, dated 1999).

By MIC50 is commonly meant the lowest concentration that inhibits either 50% of growth or 50% of the strains tested, depending on the study.

Converted amounts (≈) assume the structure as drawn. Structures can show the parent of a compound that is named as a salt.

This assay deals with Helicobacter pylori. Nature of the assay: Activity against Helicobacter pylori (agar growth inhibition, methodology of Iwahi et al.). The class given is cell-based. Particulars: 96 h, Columbia agar (Oxoid), growth period of 4 days, read-out: approx. MIC50. From the text: The compounds of the formula I were investigated regarding their activity against Helicobacter pylori following the methodology described by Tomoyuki Iwahi et al. (Antimicrobial Agents and Chemotherapy, 1991, 490-496) using Columbia agar (Oxoid) and with a growth period of 4 days. The approx. MIC 50 values listed in the following Table A resulted here for the compounds investigated (the numbers of the compounds given agree with the example numbers in the description).
Take `Cc1c(SCCOc2ccccc2)ccnc1CSc1nc2ccccc2[nH]1` [Compound 1]: the MIC50 is around 0.05 µg/mL (≈ 0.123 µM).
As for `Cc1c(SCCCCOc2ccccc2)ccnc1CSc1nc2ccccc2[nH]1` [Compound 2], the MIC50 is around 0.1 µg/mL (≈ 0.23 µM).
Take `Cc1ccc(CSCCSc2ccnc(CSc3nc4ccccc4[nH]3)c2C)cc1` [Compound 3, 2-{[[3-Methyl-4-[5-(4-methylphenyl)-1,4-dithia-pent-1-yl]-2-pvridinyl]methyl]thio}-1 H-benzimidazole]: the MIC50 is around 0.05 µg/mL (≈ 0.111 µM).
As for `Cc1c(SCCCSC(=S)N(C)C)ccnc1CSc1nc2ccccc2[nH]1` [Compound 4, 2-{[[4-[3-Dimethvldithiocarbamoylpropylthio]-3-methyl-2-pyridinyl]methyl]thio}1 H-benzimidazole], the MIC50 is around 0.05 µg/mL (≈ 0.111 µM).
As for `Cc1c(SCCCSCc2ccco2)ccnc1CSc1nc2ccccc2[nH]1` [Compound 5, 2-{[[4-[(6-Furan-2-yl)-1,5-dithiahex-1-yl]-3-methyl-2-pyridinyl]methyl]thio}-1 H-benzimidazole], the MIC50 was around 0.05 µg/mL (≈ 0.113 µM).
As for `Cc1c(SCCCSCc2ccc(CN(C)C)o2)ccnc1CSc1nc2ccccc2[nH]1` [Compound 6, trihydrochloride], the MIC50 is around 0.05 µg/mL.
With `Cc1scnc1CCSCCCSc1ccnc(CSc2nc3ccccc3[nH]2)c1C.Cl.Cl.Cl` [Compound 7, 2-{[[3-Methyl-4-[7-(5-methylthiazol-4-yl)-1,5 dithiahept-1-yl]-2-pyridinyl]methyl]thio}-1 H-benzimidazole trihydrochloride], the MIC50 is around 0.05 µg/mL.
`Cc1c(SCCCSc2nc3ccccc3s2)ccnc1CSc1nc2ccccc2[nH]1` [Compound 10, 2-{[[4-[(5-Benzothiazol-2-yl)-1,5-dithiapent-1-yl]-3-methyl-2-pyridinyl]methyl]thio}-1 H-benzimidazole]: the MIC50 was around 0.1 µg/mL (≈ 0.202 µM).
Take `Cc1c(SCCCSc2nc3ccccc3o2)ccnc1CSc1nc2ccccc2[nH]1` [Compound 11, 2-{[[4-[(5-Benzoxazol-2-yl)-1,5-dithiapent-1-yl]-3-methyl-2-pyridinyl]methyl]thio}1 H-benzimidazole]: the MIC50 was around 0.1 µg/mL (≈ 0.209 µM).
Turning to `Cc1c(SCCCSc2ccncc2)ccnc1CSc1nc2cccnc2[nH]1` [Compound 14], the MIC50 was around 0.1 µg/mL (≈ 0.227 µM).
